The results in this text go back to patent EP1229025A1, “NOVEL QUINAZOLINE DERIVATIVES” (Japan Energy Corporation, priority 1999, dated 2001).

What all share (type): cell-based
The test system of one experiment is IL-4 production. Put plainly: IL-4 production inhibiting test in OVA-stimulated spleen cells of immunised mouse (ELISA). Conditions: 72 h, spleen cells of OVA-immunised BALB/c-mouse, OVA 0.5 mg/ml, 3 days. Here is the method:
(§1) Example 146: IL-4 and IL-5 production inhibiting test
(§2) A 6-weeks-old BALB/c-mouse (Nippon Charles River) was bred preparatively for 1 week and given at the day 0 and day 14 intraperitoneal injection of 100 µl PBS to give immunity which PBS contained 0.1 mg/ml of Ovalbumin(OVA) and 40 mg/ml of aluminum hydroxide. At the day 21 the spleen was taken out from the mouse. The spleen was dissected with a pincette in cooled PBS, passed through a mesh and subjected to centrifugation at 4 °C at 1,500 rpm for 5 minutes. The cells was added with 5 ml of 0.2% NaCI to destroy erythrocytes, and then was made isotonic by adding 5 ml of 1.6% of NaCl. After centrifugation at 4 °C, 1,500 rpm for 5 minutes, the cells were washed twice with 10 ml ofRPMI1640 culture medium. The obtained spleen cells were suspended in cRPMI1640 medium, and the number of the cells was measured by Tuerk dying. After being adjusted to 1 × 10^7 cells/ml, the cells were planted in 100 µl/well on a 96-well plate (FALCON). The cells were cultured at 37 °C under 5% CO2 atmosphere for about 4 hours. OVA was prepared to 10 mg/ml with cRPMI1640 culture medium and subjected to sterile filtration. The 10 mg/ml OVA was diluted with cRPMI1640 culture medium to give 1 mg/ml OVA. A compound to be tested which was dissolved in DMSO in at 1,000-fold concentration was diluted up to 500-fold with cRPMI1640 culture medium containing 1 mg/ml OVA and added in 100 µl/well to the cells which had been planted on the previously mentioned 96-well plate (final concentration of OVA: 0.5 mg/ml). As the controls, the solutions were made by diluting DMSO of the same volume as with the test compounds with cRPMI1640 culture medium containing 1 mg/ml OVA, and they were added to the cells. These cells were cultured at 37 °C under 5%CO2 atmosphere for 3 days. IL-4 and IL-5 in the culture supernatants after 3 days were quantitatively determined by ELISA method. IL-4 and IL-5 were quantitatively determined using IL-4 Development Kit (Genzyme Techne) and mouse IL-5 MiniKit (ENDOGEN), respectively. The production inhibiting rates of each tested compound against IL-4 are shown in Table 22, those against IL-5 in Table 23.
(In general: An ELISA detects its analyte on a solid surface through an enzyme-linked reagent.)

A further experiment concerns IL-5 production. Description: IL-5 production inhibiting test in OVA-stimulated spleen cells of immunised mouse (ELISA). The settings on record: 72 h, spleen cells of OVA-immunised BALB/c-mouse, OVA 0.5 mg/ml, 3 days. Here is the method: as §1, §2
Another experiment relates to TNF-α production. Description: TNF-α production inhibiting test using human PBMC (LPS stimulus, ELISA). Conditions: LPS 10 ng/ml, 16 hours, ELISA of culture supernatants. On the procedure:
Example 145: TNF-α production inhibiting test using human PBMC (peripheral blood mononuclear cells)
Preparation of human PBMC
The blood of a healthy person was taken with a vacuum blood-collecting tube (Nipro neotube) and diluted up to two-fold with physiological saline (Otsuka Pharmaceuticals). To the diluted blood was added 6% dextran T-500 (prepared after dissolution in physiological saline (Otsuka Pharmaceuticals) and sterilization with an autoclave) so as to make a final concentration of 1%. The solution was subjected to tumble mixing and allowed to stand at room temperature for 30 minutes to precipitate the erythrocytes. The supernatant was collected and subjected to centrifugation at 20 °C and at 1,500 rpm for 10 minutes. The cells were suspended in 3 ml of RPMI1640 culture medium (Asahi Technogllas) and overlaid on the solution surface of 3 ml Lymphoprep (NYCOMED). Further, with 1.5 ml of RPMI1640 culture medium being added to the tube which had contained the cell suspension liquid, the cells attached to the tube, which had remained uncollected, were suspended for collection and overlaid on the Lymphoprep previously mentioned. This operation was repeated again. After centrifugation at 20 °C and at 2,000 rpm for 30 minutes, there was collected a fraction of peripheral blood mononuclear cells present in the boundary surface between the Lymphoprep and the RPMI1640 culture medium. The cells were washed twice with 10 ml RPMI1640 culture medium to remove the Lymphoprep and then suspended in a RPMI1640 culture medium added with 10% bovine fetal serum (IRVINE SCIENTIFIC), 100 U/ml penicillin and 100 µg/ml streptomycin (hereinafter referred to as cRPMI1640 culture medium). The number of the cells was measured by Tuerk dying, and the cells, after adjustment to 3 × 10^6 cells/ml, were planted in 100 µl/well on a 96-well plate (FALCON). The cells were cultured at 37 °C under 5%CO2 atmosphere for about 5 hours.
Induction of TNF-α production by LPS stimulus
LPS (E.coli 0111:B4, DIFCO), which had been prepared to 10 mg/ml with water and kept at -20, was diluted to 100 µg/ml with cRPMI1640 culture medium and subjected to sterile filtration. The 100 µg/ml LPS was diluted with cRPMI1640 culture medium to prepare 20 ng/ml LPS. A compound to be tested which was dissolved in DMSO at 1,000-fold concentration was diluted to 500-fold with cRPMI1640 culture medium containing 20 ng/ml LPS and added in 100 µl/well to the cells which had been planted on the previously mentioned 96-well plate (final concentration of LPS: 10 ng/ml). For use as the control group, the solutions were made by diluting DMSO of the same volume as in the test compounds with cRPMI1640 culture medium containing 20 ng/ml LPS, and they were added to the cells. These cells were cultured at 37 °C under 5%CO2 atmosphere for 16 hours.
Determination of TNF-α activity (ELISA method)
To the 96-well plate the mouse anti-human TNF-α antibody (prepared to 2 µg/ml with Coating buffer*^1) was added so as to make 100 µl/well and allowed to stand at 4 °C overnight. After 5-times washing with Wash buffer*^2 (300µl/well), the Blocking buffer*^3 was added to the solutions, which were allowed to stand 37 °C for 2 hours. The culture supernatants were diluted up to 5-fold in the plate (supernatant 20 µl being added to 80 µl of cRPMI1640 culture medium). Simultaneously, for using for a calibration curve, a series of dilution of recombinant human TNF-α was prepared arid allowed to stand 37 °C for 1 hour. After 5-times washing with Wash buffer (300 µl /well), biotinylated rabbit anti-human TNF-α antibody (prepared to 0.25 µg/ml with Antibody diluent*^4) was added so as to make 100 µl /well and allowed to stand at 37 °C for 1 hour. After 5-times washing with Wash buffer (300 µl /well), Streptavidin-Horseradish peroxidase(prepared to 1:4000 with Antibody diluent) was added to make 100 µl /well and allowed to stand at 37 °C for 15 minutes. […]

The term IC50 denotes the point on the concentration scale where inhibition reaches its midpoint. Take `O=[N+]([O-])c1cc2c(NCc3ccc4c(c3)OCO4)ncnc2cc1N1CCNCC1` [Example 31, 4-[3,4-(methylenedioxy)benzylamino]-6-nitro-7-(piperazin-1-yl)quinazoline]: the IC50 turned out to be 0.01 µM in the experiment with IL-4 production, 0.2 µM with IL-5 production and 0.08 µM in the experiment on TNF-α production.
Turning to `O=[N+]([O-])c1cc2c(NCc3cccs3)ncnc2cc1N1CCNCC1` [Example 48, 6-nitro-7-(piperazin-1-yl)-4-[(2-thienyl)methylamino]quinazoline], the half-inhibitory concentration (IC50) was found to be 0.1 µM in the experiment with IL-4 production and 0.9 µM in the experiment with IL-5 production.
Consider `O=[N+]([O-])c1cc2c(NCc3ccco3)ncnc2cc1N1CCNCC1` [Example 51, 4-[(2-furyl)methylamino]-6-nitro-7-(piperazin-1-yl)quinazoline], for which the IC50 in the experiment with IL-4 production is 0.1 µM.
For the compound `O=[N+]([O-])c1cc2c(NCc3ccccc3F)ncnc2cc1N1CCNCC1` [Example 61, 4-(2-fluorobenzylamino)-6-nitro-7-(piperazin-1-yl)quinazoline], the values for the IC50 with IL-4 production, in the experiment on IL-5 production and in the experiment with TNF-α production were 0.2 µM, 2 µM and 0.3 µM, respectively.
Taken in the same sequence, the figures for `O=[N+]([O-])c1cc2c(NCc3cccc(F)c3)ncnc2cc1N1CCNCC1` [Example 62, 4-(3-fluorobenzylamino)-6-nitro-7-(piperazin-1-yl)quinazoline] were 0.1 µM, 1.4 µM and 0.3 µM.
Compound `O=[N+]([O-])c1cc2c(Nc3ccc(F)cc3)ncnc2cc1N1CCNCC1` [Example 123, 4-[(4-fluoro)anilino]-6-nitro-7-(piperazin-1-yl)quinazoline] registered a 50% inhibitory concentration (IC50) in the experiment with TNF-α production of 0.6 µM.
On the same count and under the same terms, then `O=[N+]([O-])c1cc2c(Nc3ccc4c(c3)OCO4)ncnc2cc1N1CCNCC1` [Example 124, 4-[(3,4-methylenedioxy)anilino]-6-nitro-7-(piperazin-1-yl)quinazoline], with 1.7 µM; and `O=[N+]([O-])c1cc2c(NCCc3ccc4c(c3)OCO4)ncnc2cc1N1CCNCC1` [Example 125], with 3.3 µM.
On the same count and under the same terms, then `O=[N+]([O-])c1cc2c(NCCCc3ccc(F)cc3)ncnc2cc1N1CCNCC1` [Example 126, 4-[3-[(4-fluoro)phenyl]propylamino]-6-nitro-7-(piperazin-1-yl)quinazoline], with 0.7 µM.
`O=[N+]([O-])c1cc2c(NCCCc3ccc4c(c3)OCO4)ncnc2cc1N1CCNCC1` [Example 127, 4-[3-[(3,4-methylenedioxy)phenyl]propylamino]-6-nitro-7-(piperazin-1-yl)quinazoline] came in with an IC50 with TNF-α production of 0.5 µM.
The same measure, in the same setting: then `O=[N+]([O-])c1cc2c(NCc3ccc(F)c(F)c3)ncnc2cc1N1CCNCC1` [Example 128, 4-[(3,4-difluoro)benzylamino]-6-nitro-7-(piperazin-1-yl)quinazoline], with 0.7 µM.
Consider `CCOC(=O)c1ccc(CNc2ncnc3cc(N4CCNCC4)c([N+](=O)[O-])cc23)cc1` [Example 129, 4-[(4-ethoxycarbonyl)benzylamino]-6-nitro-7-(piperazin-1-yl)quinazoline], for which the IC50 with IL-4 production came to 0.1 µM; in the experiment with IL-5 production it was 1.7 µM; in the experiment on TNF-α production, 0.2 µM.
Regarding `O=[N+]([O-])c1cc2c(NCc3ccc4c(c3)OCCO4)ncnc2cc1N1CCNCC1` [Example 130, 4-[(3,4-ethylenedioxy)benzylamino]-6-nitro-7-(piperazin-1-yl)quinazoline], in the experiment on TNF-α production, the IC50 came out at 2.5 µM.
As to `CC(C)(C)c1cc(CNc2ncnc3cc(N4CCNCC4)c([N+](=O)[O-])cc23)cc(C(C)(C)C)c1O` [Example 131, 4-[(3,5-di-tert-butyl-4-hydroxy)benzylamino]-6-nitro-7-(piperazin-1-yl)quinazoline], the IC50 in the experiment on IL-4 production came out at 0.2 µM; with IL-5 production it was 1.4 µM; in the experiment with TNF-α production, 0.3 µM.
